Experimental data reported in ChEMBL document CHEMBL4364294 (J Med Chem, 2019).
Values after ≈ are worked out from the molar mass of the structure shown.

Columns and labels:
[1] = Intrinsic clearance in human liver microsomes; type: ADME, Microsome; conditions: read-out: CLH
[2] = Aqueous solubility of the compound at pH 6.5; type: physicochemical
[3] = Aqueous solubility of the compound at pH 1; type: physicochemical
[4] = Aqueous solubility of the compound at pH 7.4; type: physicochemical

Structure (SMILES) | predicted hepatic clearance [1] [mL/min/kg] | solubility [2] [µM] | solubility [3] [µM] | solubility [4] [µM]
OC(CC1c2c(F)cccc2-c2cncn21)C1CCC(F)(F)CC1 (configuration not stated) | 15.3 |  |  | 
O[C@@H](C[C@H]1c2c(F)cccc2-c2cncn21)[C@H]1CC[C@@H](O)CC1 | 12.7 |  |  | 
O=C(N[C@H]1CC[C@@H](C(O)CC2c3ccccc3-c3cncn32)CC1)c1ccccc1 (some centres not stated) | 8.23 | 65 (≈ 26.1 µg/mL) | 400 (≈ 161 µg/mL) | 56 (≈ 22.5 µg/mL)
O=C1CCC(C(O)CC2c3c(F)cccc3-c3cncn32)CC1 (configuration not stated) | 20.3 |  |  | 
OC1CCC(C(O)CC2c3c(F)cccc3-c3cncn32)CC1 (configuration not stated) | 4.06 | 329 (≈ 104 µg/mL) | 353 (≈ 112 µg/mL) | 316 (≈ 100 µg/mL)
O[C@H](C[C@H]1c2c(F)cccc2-c2cncn21)[C@H]1CC[C@@H](O)CC1 | 18.5 |  |  | 
